For assay [1], the target named is T1, glutathione-S-transferase (GST) tagged LXRbeta LBD (ligand binding domain) (Homo sapiens, UniProt P55055).
T1 construct: purchased Invitrogen pv4658.pps
T1 sequence (P55055 222-460 limits assumed): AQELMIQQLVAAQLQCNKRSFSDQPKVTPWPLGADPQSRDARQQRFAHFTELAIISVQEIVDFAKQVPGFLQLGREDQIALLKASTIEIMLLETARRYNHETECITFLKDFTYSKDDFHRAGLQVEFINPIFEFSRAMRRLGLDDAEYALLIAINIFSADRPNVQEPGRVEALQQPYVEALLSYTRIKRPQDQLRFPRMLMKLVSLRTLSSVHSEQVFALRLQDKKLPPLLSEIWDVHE
Put plainly: LanthaScreen TR-FRET Liver X Receptor Coactivator Assay, co-activator recruitment to LXRbeta LBD. The class given is biochemical. The conditions noted are these: for Emax: efficacy at max dose, in relation to reference dual agonist T0901317, read-out: LXR beta Activity @ max dose (%); for EC50: potency (Inflection Point, IP), co-activator recruitment to LXRbeta LBD, in relation to T0901317, read-out: LXR beta IP. The method in brief:
(§1)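 Readout is time-resolved FRET between a terbium anti-GST antibody bound to the LBD and a fluorescein-tagged coactivator peptide recruited on ligand binding. Plates were incubated at room temperature before reading. Potency (IP) and efficacy (Emax) are referenced to T0901317.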

Assay [2] has as its target T2, glutathione-S-transferase (GST) tagged LXRalpha LBD (ligand binding domain) (Homo sapiens, UniProt Q13133).
T2 construct: purchased Invitrogen pv4655
T2 sequence (Q13133 209-447 limits assumed): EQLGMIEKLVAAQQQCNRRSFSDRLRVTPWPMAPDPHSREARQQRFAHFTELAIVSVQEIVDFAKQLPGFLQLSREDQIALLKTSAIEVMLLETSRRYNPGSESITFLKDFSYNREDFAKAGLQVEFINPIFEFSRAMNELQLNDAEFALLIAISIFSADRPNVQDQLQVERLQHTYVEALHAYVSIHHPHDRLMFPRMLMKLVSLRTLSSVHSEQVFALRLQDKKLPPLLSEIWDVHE
Nature of the assay: LanthaScreen TR-FRET Liver X Receptor Coactivator Assay, co-activator recruitment to LXRalpha LBD. The conditions noted are these: for Emax: efficacy at max dose, in relation to reference dual agonist T0901317, read-out: LXR alpha Activity @ max dose (%); for EC50 / LXR alpha IP (nM): potency (Inflection Point, IP), co-activator recruitment to LXRalpha LBD, in relation to T0901317; for EC50: read-out: LXR alpha IP. In kind it is biochemical. The essentials:
as §1
In general terms: TR-FRET usually uses a lanthanide donor and a delayed reading to cut background.

`Cc1cc(N2CCC(CC3CCN(C(=O)[C@](O)(c4ccccc4)C(F)(F)F)CC3)CC2)ccc1C(=O)N(C)C` [Example 2-155, N,N,2-trimethyl-4-[4-({1-[(2R)-3,3,3-trifluoro-2-hydroxy-2-phenyl-propanoyl]piperidin-4-yl}methyl)piperidin-1-yl]benzamide]: the Emax was 69% in assay [1] and 33% in assay [2]. Further, the EC50 in assay [1] worked out at 25 nM; in assay [2], 386 nM.
Regarding `CCc1cccc([C@@](O)(C(=O)N2CCC(CC3CCN(c4ccc(C(=O)N(C)C)c(C)c4)CC3)CC2)C(F)(F)F)c1` [Example 2-156, 4-[4-({1-[(2R)-2-(3-ethyl-phenyl)-3,3,3-trifluoro-2-hydroxy-propanoyl]piperidin-4-yl}methyl)piperidin-1-yl]-N,N,2-trimethyl-benzamide], in assay [1], the Emax worked out at 42% and the EC50 came out at 21 nM. Besides, in assay [2], the Emax worked out at 12% and the “LXR alpha IP (nM)” value is on record as “NO IP”.
For `Cc1cccc([C@@](O)(C(=O)N2CCC(CC3CCN(c4ccc(C(=O)N(C)C)c(C)c4)CC3)CC2)C(F)(F)F)c1` [Example 2-157, N,N,2-trimethyl-4-[4-({1-[(2R)-3,3,3-trifluoro-2-hydroxy-2-(3-methylphenyl)propanoyl]piperidin-4-yl}methyl)piperidin-1-yl]benzamide] the same measures were 43%, 16 nM, 9% and “NO IP”.
The corresponding values for `COc1cccc([C@@](O)(C(=O)N2CCC(CC3CCN(c4ccc(C(=O)N(C)C)c(C)c4)CC3)CC2)C(F)(F)F)c1` [Example 2-158, N,N,2-trimethyl-4-[4-({1-[(2R)-3,3,3-trifluoro-2-hydroxy-2-(3-methoxyphenyl)propanoyl]piperidin-4-yl}methyl)piperidin-1-yl]benzamide] are 44%, 20 nM, 6% and “NO IP”.
Turning to `Cc1cc(N2CCC(CC3CCN(C(=O)[C@](O)(c4cccc(Cl)c4)C(F)(F)F)CC3)CC2)ccc1C(=O)N(C)C` [Example 2-159, 4-[4-({1-[(2R)-2-(3-chloro-phenyl)-3,3,3-trifluoro-2-hydroxy-propanoyl]piperidin-4-yl}methyl)piperidin-1-yl]-N,N,2-trimethyl-benzamide], in assay [1], the Emax came out at 65% and the EC50 is 21 nM. Besides, in assay [2], the Emax stood at 22% and the EC50 was 156 nM.
For `CN(C)C(=O)c1ccc(N2CCC(CC3CCCN(C(=O)[C@](O)(c4ccccc4)C(F)(F)F)CC3)CC2)cc1Cl` (stereo partly drawn) [Example 2-160, 2-chloro-N,N-dimethyl-4-[4-({1-[(2R)-3,3,3-trifluoro-2-hydroxy-2-phenyl-propanoyl]azepan-4-yl}methyl)piperidin-1-yl]benzamide], in assay [1], the Emax was 33% and the EC50 came out at 26 nM. Also, in assay [2], the Emax stood at 12% and the “LXR alpha IP (nM)” value is recorded as “NO IP”.
The corresponding values for `COc1cccc([C@@](O)(C(=O)N2CCCC(CC3CCN(c4ccc(C(=O)N(C)C)c(Cl)c4)CC3)CC2)C(F)(F)F)c1` (stereo partly drawn) [Example 2-161, 2-chloro-N,N-dimethyl-4-[4-({1-[(2R)-3,3,3-trifluoro-2-hydroxy-2-(3-methoxy-phenyl)propanoyl]azepan-4-yl}methyl)piperidin-1-yl]benzamide] are 28%, 13 nM, 0% and “NO IP”.
On to `CN(C)C(=O)c1ccc(N2CCC(CCC3CCN(C(=O)[C@](O)(c4ccccc4)C(F)(F)F)CC3)CC2)cc1Cl` [Example 2-162, 2-chloro-N,N-dimethyl-4-[4-(2-{1-[(2R)-3,3,3-trifluoro-2-hydroxy-2-phenyl-propanoyl]piperidin-4-yl}ethyl)piperidin-1-yl]benzamide], for which, in assay [1], the Emax is 38% and the EC50 stood at 502 nM. Also, in assay [2], the Emax came to 12% and the “LXR alpha IP (nM)” value is reported as “NO IP”.
For `COc1cccc(C(O)(C(=O)N2CCC(CCC3CCN(c4ccc(C(=O)N(C)C)c(Cl)c4)CC3)CC2)C(F)(F)F)c1` (centres unmarked) [Example 2-163, 2-chloro-N,N-dimethyl-4-[4-(2-{1-[3,3,3-trifluoro-2-hydroxy-2-(3-methoxyphenyl)propanoyl]piperidin-4-yl}ethyl)piperidin-1-yl]benzamide] the same measures were 39%, 728 nM, 0% and “NO IP”.
For the molecule `CN(C)C(=O)c1ccc(N2CCC(CC3CCN(C(=O)[C@](O)(c4cccc(F)c4)C(F)F)CC3)CC2)cc1Cl` [Example 2-164, 2-chloro-4-[4-({1-[(2R)-3,3-difluoro-2-(3-fluorophenyl)-2-hydroxy-propanoyl]piperidin-4-yl}methyl)piperidin-1-yl]-N,N-dimethyl-benzamide], the values for the Emax in assay [1] and in assay [2] were 70% and 29%, respectively. Moreover, the figures for the EC50 in assay [1] and in assay [2] were 12 nM and 294 nM, respectively.
With `CN(C)C(=O)c1ccc(N2CCC(CC3CCN(C(=O)[C@](O)(c4ccccc4)C(F)F)CC3)CC2)cc1Cl` [Example 2-166, 2-chloro-4-[4-({1-[(2R)-3,3-difluoro-2-hydroxy-2-phenyl-propanoyl]piperidin-4-yl}methyl)piperidin-1-yl]-N,N-dimethyl-benzamide], in assay [1], the Emax was found to be 46% and the EC50 is 14 nM. Also, in assay [2], the Emax was determined as 20% and the EC50 was found to be 296 nM.
With `CN(C)C(=O)c1ccc(N2CCC(CC3CCN(C(=O)C(N)(c4cccc(Cl)c4)C(F)(F)F)CC3)CC2)cc1Cl` (centres unmarked) [Example 2-167, 4-[4-({1-[2-amino-2-(3-chlorophenyl)-3,3,3-trifluoro-propanoyl]piperidin-4-yl}methyl)piperidin-1-yl]-2-chloro-N,N-dimethyl-benzamide], in assay [1], the Emax was determined as 75% and the EC50 was 37 nM. Moreover, in assay [2], the Emax came to 18% and the “LXR alpha IP (nM)” value is recorded as “NO IP”.
The corresponding values for `CN(C)C(=O)c1ccc(N2CCC(CC3CCN(C(=O)C(O)(c4cccc5ccccc45)C(F)(F)F)CC3)CC2)cc1Cl` (centres unmarked) [Example 2-168, 2-chloro-N,N-dimethyl-4-(4-{[1-(3,3,3-trifluoro-2-hydroxy-2-naphthalen-1-ylpropanoyl)piperidin-4-yl]methyl}piperidin-1-yl)benzamide] are 21%, 58 nM, 0% and “NO IP”.
As for `CN(C)C(=O)c1ccc(N2CCC(CC3CCN(C(=O)C(O)(c4cccc5c4CCC5)C(F)(F)F)CC3)CC2)cc1Cl` (centres unmarked) [Example 2-170, 2-chloro-4-[4-({1-[2-(2,3-dihydro-1H-inden-4-yl)-3,3,3-trifluoro-2-hydroxy-propanoyl]piperidin-4-yl}methyl)piperidin-1-yl]-N,N-dimethyl-benzamide], in assay [1], the Emax worked out at 19% and the EC50 came out at 27 nM. In assay [2], the Emax came to 0% and the “LXR alpha IP (nM)” value was “NO IP”.

The values are drawn from patent publication US10752587B2, “Homobispiperidinyl derivatives as liver X receptor beta agonists, compositions and their use” (Merck Sharp & Dohme Corp., priority 2015, dated 2020).
